Holding throughout (assay type): physicochemical
Series [1] in a line: pH titration of 75 mg/mL Formula (VI) in WFI with 1.0N HCl. The conditions noted are these: 75 mg/mL in water titrated with hydrochloric acid. How it is done:
A solution of 75 mg/mL compound was prepared by dissolving in WFI and gently mixing for 16-24 hours prior to the titration. The titration of compound with a strong acid provided information for this compound in terms of “apparent” pKa.
In addition, this mixing would allow oxidation of trace Mn (II) compound to the higher oxidation state of Mn (III). The drug solution was titrated with 1.0 N HCl at 30 μL increments.
About 10 g of WFI was placed in the container including stir bar. […] The solution was them mixed at room temperature for 16-24 hours. At the end of the 16-24 hour hold/mix, the solution was titrated from its starting pH of about 9 down to pH 3 using 1N HCl.
Due to a big molecular structure (MW=1033), the sample preparation required an unusually long mixing process for 16-24 hours in order to complete the dissociation of drug and the oxidation of trace […] compound into a higher oxidation state of Mn (III). This mixing process was crucial to achieve the final pH equilibrium.

A short description of series [2]: Study 2: 75 mg/mL Formula (VI) in WFI at pH 7.0, 14 days at 60° C. On the procedure: The samples were filled in glass vials and capped with an air headspace. All samples were tested and evaluated for physicochemical stability under the storage conditions at 2-8 and 60° C. after 0, 3, 7 and 14 days.
About 10 g of WFI was placed in the container including a stir bar.
The pH was measured at approximately hourly intervals and at about 16 hours and 24 hours. At the end of the 16-24 hour hold/mix, the pH of the solution was adjusted to pH 7.0 with either HCl or NaOH and mixed for approximately 15 minutes. The solution was filtered through a PVDF, 0.22 μm filter into a clean container and its pH measured.
The pH was measured at 30 minutes then hourly thereafter for the 16-24 hour time period. Once the solution pH and osmolality stabilized, the air sparging was stopped. The solution was adjusted to pH 7.0 with either HCl or NaOH and mixed for about 15 minutes. The solution was filtered through a PVDF, 0.22 μm filter into clean container and the pH measured.
Both samples were then stored at 60° C. and samples taken at 0, 3, 7 and 14 days from both containers and to measure pH. […]

Series [3] can be described thus: Study 3: various strengths of Formula (VI) in WFI at pH 7.0, with and without ascorbic acid. On the procedure:
Ascorbic acid was also included in this study. […] The samples were tested and evaluated for physicochemical stability under 2-8 and 60° C. storage conditions after 0, 3, 7 and 14 days.
About 10 g of WFI was placed in the container including a stir bar. […] The pH was measured and the solution was mixed at room temperature for 16-24 hours. At the end of the 16-24 hour hold/mix, the pH of solution was adjusted to pH 7.0 with either HCl or NaOH and mixed for about 15 minutes. The solution was filtered through a PVDF, 0.22 μm filter by discarding about 1 mL prior to placing about 9-10 mL into each of two separate clean containers. The pH of the samples was then measured.
About 10 g of WFI was placed in the container including a stir bar. […] About 0.1026 g of Ascorbic Acid was added to the container while mixing. […] The pH was measured and the solution was mixed at room temperature for 16-24 hours. At the end of the 16-24 hour hold/mix, the pH of solution was adjusted to pH 7.0 with either HCl or NaOH and mixed for about 15 minutes. The solution was filtered through a PVDF, 0.22 μm filter by discarding 1 mL prior to placing about 9-10 mL into each of two separate clean containers. The pH of the samples was then measured.
About 10 g of WFI was placed in the container including a stir bar. […] About 0.103 g of Ascorbic Acid was added to the container while mixing. […] The pH was measured and the solution was mixed at room temperature for 16-24 hours. At the end of the 16-24 hour hold/mix, the pH of solution was adjusted to pH 7.0 with either HCl or NaOH and mixed for about 15 minutes. The solution was filtered through a PVDF, 0.22 μm filter by discarding about 1 mL prior to placing about 9-10 mL into each of two separate clean containers. The pH of the samples was then measured.
Following preparation of the solutions, one container of each of solutions 1-6 was stored at 2-8° C. The remaining containers for each of solutions 1-6 were stored at 60° C. From each container, a sample was taken at 0, 3, 7 and 14 days and the pH of the solution was measured.

For the substance “[5,10,15,20-tetrakis(1,3-diethylimidazolium-2-yl)porphyrinato]manganese(III) chloride hydrate complex [Formula (VI)]”, the “"apparent" pKa” value in series [1] is given as 9.02. Further, the “dependence of drug stability on pH” value in series [2] (75 mg/mL in WFI, 2-8 and 60° C., 0, 3, 7 and 14 days) is on record as “The lower the pH, the greater the drug stability”. The pH decrease is reported as 1-2 pH units in series [2] (75 mg/mL in water at pH 7.0, 60° C., after 14 days); approximately 2 pH units in series [3] (65 and 75 mg/mL samples without ascorbic acid, 60° C., after 14 days). In addition, the pH stability result is given as “relatively stable” in series [2] (75 mg/mL in water at pH 7.0, refrigerated condition); “relatively stable” in series [3] (65 and 75 mg/mL samples without ascorbic acid, refrigerated condition). In addition, in series [2] (75 mg/mL in water pH 7, 60° C.), the “chemical stability, air sparged versus non-sparged sample” value is reported as “better stability”. For the same substance, the “degradation lower than that from the control sample” value in series [2] (75 mg/mL in water pH 7, all samples stored at 60° C., after 14 days) is 3-6%. This substance yielded a pH increase in series [3] (100 mg/mL refrigerated sample without ascorbic acid, after 3 day storage) of approximately 1 pH unit. In series [3] (100 mg/mL sample without ascorbic acid, 60° C., after 14 days), the “pH decrease compared to the control sample” value is approximately 2 pH units. For the same substance, the degradation in series [3] (65, 75, 100 mg/mL in water pH 7 containing ascorbic acid, 60° C., after 14 days) is on record as 3-5%; in series [3] (65, 75, 100 mg/mL in water pH 7 without ascorbic acid, 60° C., after 14 days), 3-5%. Also, in series [3] (all refrigerated samples containing ascorbic acid, after 14 days), the “pH increase from initial pH” value is approximately 1.5 pH units. Further, the “pH decrease from initial pH” value in series [3] (samples containing ascorbic acid, 60° C., after 3 days) is reported as approximately 2 pH units. In addition, the pH rise back in series [3] (samples containing ascorbic acid, 60° C., after 14 days) was 1-1.5 pH units.

(Values after patent US20160333019A1, “SYNTHESIS AND FORMULATIONS OF PORPHYRIN COMPOUNDS” (Aeolus Sciences, Inc., priority 2013, published 2016).)
